Drawing on patent publication US5011838A, “Pharmacologically active 2-substituted 3-(2-ethoxyethyl) imidazo[4,5-b]pyridines and pharmaceutical compositions containing them” (Dompe Farmaceutici S.p.A., priority 1989, dated 1991), this text covers ED50 and LD50 for 4 compounds.

The test system of data set [1] is mortality induced by histamine. The experiment in a line: Effect on the mortality induced by histamine. It is filed as in vivo, male albino guinea pigs (Dunkin-Hartley). Particulars: Cavia porcellus, po, 1 h; p.o., 60 min before 1.25 mg/kg i.v. histamine dihydrochloride; guinea pig; read-out: Mortality induced by hystamine ED50 p.o. The procedure: The method described by Romer D. et al. (Med. Welt. 17,791, 1966) was followed and the tests were carried out on male albino guinea pigs (Dunkin-Hartley), weighing 350 to 450 g which were kept in cages with a grid floor, on an empty stomach for 24 hours with water ad libitum. The compounds under examination have been orally administered to the animals, dissolved in 0.5% carboxymethylcellulose, 60 minutes before intravenous administration of 1.25 mg/kg of histamine dihydrochloride in saline solution. In the control animals, treated with carboxymethylcellulose, the intravenous administration of histamine dihydrochloride induced a 100% mortality.
It has been evaluated ED50, which corresponds to the amount of the compound able to inhibit to 50% the mortality induced by histamine: estimation of ED50 has been made applying the `probit` method (Finney D. J. "Statistical method in biological assay", pg 512,1957).

The subject of data set [2] is mortality induced by compound 48/80. The experiment in a line: Mortality inhibition by compound 48/80. It is filed as in vivo, Sprague Dawley Nos male rats. The note with it: ip, half an hour before 2 mg/kg i.v. compound 48/80; rat; 4 hours observation. Here is the method: For evaluating the protection to the mortality induced by compound 48/80 administration the method described by C. J. E. Niemegeers et al. (Arch. Int. Pharmacodyn, 234,164,1978) was followed.
Sprague Dawley Nos male rats (Nossan, Correzzana, Milano) weighing 140 to 150 g, divided into groups of 10 animals each, on an empty stomach for 24 hours with water "ad libitum", were kept in cages with a grid floor, and treated intravenously with 2 mg/kg of compound 48/80 (1 ml/rat).
The animals were kept under observation for 4 hours taking note of their mortality. The results were expressed as the number of animals dead with respect to the number of treated animals. Compounds under examination or the carrier were administered half an hour before administration of compound 48/80 by intraperitoneal route, dissolved in H2 O (5 ml/kg). The experimental data were submitted to the variance analysis and to subsequent multiple comparisons according to Dunnet (D. J. Finney, in "Statistical Methods in Biological assay", Ed. L. Griffin and Co. Ltd., pag. 152,1957, Edition Ames Iowa, 1971).

Data set [3] in a line: Evaluation of the lethal dose50 (LD50), acute toxicity. Particulars: in vivo, ip; mouse; 14 days observation. The procedure: Swiss Nos (Nossan, Correzzana, Milano) mice, weighing 18 to 20 g each, on an empty stomach for 18 hours with water "ad libitum" and kept in cages with grid floor, were used. The animals, divided into groups of 10 animals each, (5M+5F) were treated intraperitoneally (10 ml/kg) with the compounds under examination dissolved in water or suspended in 0.5% carboxymethylcellulose. The animals were kept in the cages and the mortality occurred within the following 6 hours was noted down. At the expiring of the 6 hours the animals were allowed to eat up to the end of the experimentation which lasted 14 days. During this period all the toxic symptoms and the mortality occuring were noted.
The animals which died during the test period and those which were sacrificed at the end of the same, underwent autopsy for a macroscopic examination of their main organs. The experimental data were statistically compared with the X^2 method and LD50 was extrapolated by the `probit` method.

In general, ED50 refers to the dose at which the effect has come halfway, by size or by number of responders. As usually defined, the LD50 is the dose at which mortality reaches 50%. A lower LD50 goes with a more toxic substance. For the compound `CCOCCn1c(CCCN(C)C)nc2cccnc21` [Example 1, 3-(2-Ethoxyethyl)-2-(3-dimethylaminopropyl)-3H-imidazo [4,5-b] pyridine], the ED50 in data set [1] turned out to be 0.03 mg/kg; in data set [2] it was 0.5 mg/kg. Further, the LD50 at 336 h in data set [3] is > 100 mg/kg.

As to `CCOCCn1c(CCN(C)C)nc2cccnc21` [Example 2, 3-(2-Ethoxyethyl)-2-(2-dimethylaminoethyl)-3 H-imidazo [4,5-b] pyridine], the ED50 in data set [1] was found to be 0.025 mg/kg; in data set [2], 0.3 mg/kg. The LD50 at 336 h in data set [3] is > 100 mg/kg.

`CCOCCn1c(CCCN2CCOCC2)nc2cccnc21.O=C(O)/C=C/C(=O)O.O=C(O)/C=C/C(=O)O` [Example 9, 3-(2-Ethoxyethyl)-2-[3-(morpholin-4-yl)propyl]-3H-imidazo [4,5-b] pyridine difumarate]: the ED50 in data set [1] stood at 0.003 mg/kg; in data set [2] it was 0.5 mg/kg. Further, in data set [3], the LD50 at 336 h is > 100 mg/kg.

Turning to `CC(C)(C)c1ccc(C(O)CCCN2CCC(C(O)(c3ccccc3)c3ccccc3)CC2)cc1` (stereo not drawn) [Terfenadine, reference compound], the ED50 was 0.436 mg/kg in data set [1] and 1.09 mg/kg in data set [2]. Further, the LD50 at 336 h in data set [3] was found to be 620 mg/kg.
